Earlier results as cited in patent US20220395547A1, “LIPOSOMAL FORMULATIONS FOR DELIVERY OF CANNABINOIDS AND METHODS OF MAKING THEREOF” (Vella Bioscience, Inc., priority 2019, published 2022).

Test system: microorganisms
Conditions: known from the art

Compound: CC(O)CO (stereo not shown) [propylene glycol]
- Concentration at which antimicrobial activity is present: ≥ 20%
